Molecular target: mTOR/GbL/Raptor (mTORC1) (Homo sapiens, UniProt P42345)
Assay: mTOR/GbL/Raptor (mTORC1) ELISA assay
Assay type: biochemical
Settings: phosphorylation of 4E-BP1; 0.2 nM mTORC1, 10 μM ATP; read-out: IC50 in this assay (mTORC1 ELISA)
Method in brief: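 Human mTORC1 (0.2 nM) phosphorylated 50 nM His-tagged 4E-BP1 with 10 µM ATP in HEPES pH 7.2 containing 10 mM MnCl2, 120 min at ambient temperature. Substrate was captured on Ni-chelate plates; phospho-4E-BP1 was detected by primary antibody and HRP secondary with luminescence.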

SMILES: CC1(C)CCc2ncnc(N3CCOc4ccc(-c5ccc6nc(N)[nH]c6c5)cc4C3)c2C1 [Example 236, 6-[4-(6,6-dimethyl-5,6,7,8-tetrahydroquinazolin-4-yl)-2,3,4,5-tetrahydro-1,4-benzoxazepin-7-yl]-1H-benzimidazol-2-amine]
- IC50: ≤ 10 nM

SMILES: CCNC(=O)c1ccc(-c2ccc3c(c2)CN(c2ccnc4ccccc24)CCO3)cc1 [Example 243, N-ethyl-4-(4-quinolin-4-yl-2,3,4,5-tetrahydro-1,4-benzoxazepin-7-yl)benzamide]
- IC50: 50 to 250 nM

SMILES: COC(=O)Nc1nc2ncc(-c3ccc4c(c3)CN(c3ncnc5c3CC(C)(C)CC5)CCO4)cc2[nH]1 [Example 582, methyl {6-[4-(6,6-dimethyl-5,6,7,8-tetrahydroquinazolin-4-yl)-2,3,4,5-tetrahydro-1,4-benzoxazepin-7-yl]-1H-imidazo[4,5-b]pyridin-2-yl}carbamate]
- IC50: ≤ 10 nM

SMILES: COC(=O)Nc1nc2ccc(-c3ccc4c(c3)CN(c3nc(CN(C)C)nc5c3CC(C)(C)CC5)CCO4)cc2[nH]1 [Example 579, methyl [6-(4-{2-[(dimethylamino)methyl]-6,6-dimethyl-5,6,7,8-tetrahydroquinazolin-4-yl}-2,3,4,5-tetrahydro-1,4-benzoxazepin-7-yl)-1H-benzimidazol-2-yl]carbamate]
- IC50: 250 to 1000 nM

SMILES: Cc1nc2cc(-c3ccc4c(c3)CN(c3nc(CNCCF)nc(C)c3C(C)C)CCO4)ccc2[nH]1 [Example 679, 2-fluoro-N-({4-methyl-6-[7-(2-methyl-1H-benzimidazol-5-yl)-2,3-dihydro-1,4-benzoxazepin-4(5H)-yl]-5-(1-methylethyl)pyrimidin-2-yl}methyl)ethanamine]
- IC50: 10 to 50 nM

SMILES: Cc1nc2ccc(-c3ccc4c(c3)CN(c3ncnc5ccc(OCC#N)cc35)CCO4)cc2[nH]1 [Example 160, ({4-[7-(2-methyl-1H-benzimidazol-6-yl)-2,3-dihydro-1,4-benzoxazepin-4(5H)-yl]quinazolin-6-yl}oxy)acetonitrile]
- IC50: 250 to 1000 nM

SMILES: Cc1nc2c(c(N3CCOc4ccc(-c5cnc6nc(C)[nH]c6c5)cc4C3)n1)CC(C)(C)CC2 [Example 550, 7-(2-methyl-1H-imidazo[4,5-b]pyridin-6-yl)-4-(2,6,6-trimethyl-5,6,7,8-tetrahydroquinazolin-4-yl)-2,3,4,5-tetrahydro-1,4-benzoxazepine]
- IC50: ≤ 10 nM

SMILES: CC1(C)CCc2ncnc(N3CCOc4ccc(-c5cnc(Cl)c(NS(C)(=O)=O)c5)cc4C3)c2C1 [Example 623, N-{2-chloro-5-[4-(6,6-dimethyl-5,6,7,8-tetrahydroquinazolin-4-yl)-2,3,4,5-tetrahydro-1,4-benzoxazepin-7-yl]pyridin-3-yl}methanesulfonamide]
- IC50: 10 to 50 nM

SMILES: CC1(C)CCc2ncnc(N3CCOc4ccc(-c5cnc(Cl)c(OC(F)F)c5)cc4C3)c2C1 [Example 573, 7-{6-chloro-5-[(difluoromethyl)oxy]pyridin-3-yl}-4-(6,6-dimethyl-5,6,7,8-tetrahydroquinazolin-4-yl)-2,3,4,5-tetrahydro-1,4-benzoxazepine]
- IC50: 250 to 1000 nM

SMILES: COc1ccc2c(N3CCOc4ccc(-c5cnc6sc(N)nc6c5)cc4C3)nc(CN(C)C)nc2c1 [Example 527, 6-(4-{2-[(dimethylamino)methyl]-7-(methyloxy)quinazolin-4-yl}-2,3,4,5-tetrahydro-1,4-benzoxazepin-7-yl)[1,3]thiazolo[5,4-b]pyridin-2-amine]
- IC50: 250 to 1000 nM

SMILES: Cc1nc(Nc2ccccc2)c(C)c(N2CCOc3ccc(-c4ccc5nc[nH]c5c4)cc3C2)n1 [Example 529, 6-[7-(1H-benzimidazol-6-yl)-2,3-dihydro-1,4-benzoxazepin-4(5H)-yl]-2,5-dimethyl-N-phenylpyrimidin-4-amine]
- IC50: 250 to 1000 nM

SMILES: CC[C@H]1CCc2c(ncnc2N2CCOc3ccc(-c4cnc(N)c(S(=O)(=O)N5CC[C@@H](N)C5)c4)cc3C2)C1 [Example 451, 3-{[(3R)-3-aminopyrrolidin-1-yl]sulfonyl}-5-{4-[(7S)-7-ethyl-5,6,7,8-tetrahydroquinazolin-4-yl]-2,3,4,5-tetrahydro-1,4-benzoxazepin-7-yl}pyridin-2-amine]
- IC50: 10 to 50 nM

SMILES: CC1(C)CCc2ncnc(N3CCOc4ccc(-c5cnc(N)c(S(=O)(=O)O)c5)cc4C3)c2C1 [Example 400, 2-amino-5-[4-(6,6-dimethyl-5,6,7,8-tetrahydrquinazolin-4-yl)-2,3,4,5-tetrahydro-1,4-benzoxazepin-7-yl]pyridine-3-sulfonic acid]
- IC50: 50 to 250 nM

SMILES: CCN(C)S(=O)(=O)c1cc(-c2ccc3c(c2)CN(c2ncnc4c2CC(C)(C)CC4)CCO3)cnc1N [Example 395, 2-amino-5-[4-(6,6-dimethyl-5,6,7,8-tetrahydroquinazolin-4-yl)-2,3,4,5-tetrahydro-1,4-benzoxazepin-7-yl]-N-ethyl-N-methylpyridine-3-sulfonamide]
- IC50: 50 to 250 nM

SMILES: CCNc1nc2ccc(-c3ccc4c(c3)CN(c3ccnc5ccc(F)cc35)CCO4)cc2[nH]1 [Example 283, N-ethyl-6-[4-(6-fluoroquinolin-4-yl)-2,3,4,5-tetrahydro-1,4-benzoxazepin-7-yl]-1H-benzimidazol-2-amine]
- IC50: 50 to 250 nM

SMILES: Cc1ncc(-c2ccc3c(c2)CN(c2ncnc4c2CC(C)(C)CC4)CCO3)cc1NS(C)(=O)=O [Example 633, N-{5-[4-(6,6-dimethyl-5,6,7,8-tetrahydroquinazolin-4-yl)-2,3,4,5-tetrahydro-1,4-benzoxazepin-7-yl]-2-methylpyridin-3-yl}methanesulfonamide]
- IC50: 50 to 250 nM

SMILES: Cc1c(NC2CCOCC2)ncnc1N1CCOc2ccc(-c3cnc4nc(C5CC5)[nH]c4c3)cc2C1 [Example 532, 6-[7-(2-cyclopropyl-1H-imidazo[4,5-b]pyridin-6-yl)-2,3-dihydro-1,4-benzoxazepin-4(5H)-yl]-5-methyl-N-(tetrahydro-2H-pyran-4-yl)pyrimidin-4-amine]
- IC50: 250 to 1000 nM

SMILES: CC1(C)CCc2ncnc(N3CCOc4ccc(-c5cnc(N)c(S(=O)(=O)N[C@H]6CCNC6)c5)cc4C3)c2C1 [Example 390]
- IC50: 10 to 50 nM

SMILES: COc1ccc2c(N3CCOc4ccc(-c5ccc(NC(C)=O)cc5)cc4C3)nc(C)nc2c1 [Example 609, N-(4-{4-[2-methyl-7-(methyloxy)quinazolin-4-yl]-2,3,4,5-tetrahydro-1,4-benzoxazepin-7-yl}phenyl)acetamide]
- IC50: ≥ 2000 nM

SMILES: Cc1nc2ncc(-c3ccc4c(c3)CN(c3ncnc(C)c3C(C)C)CCO4)cc2[nH]1 [Example 564, 7-(2-methyl-1H-imidazo[4,5-b]pyridin-6-yl)-4-[6-methyl-5-(1-methylethyl)pyrimidin-4-yl]-2,3,4,5-tetrahydro-1,4-benzoxazepine]
- IC50: ≤ 10 nM

SMILES: Cc1nc2ccc(-c3ccc4c(c3)CN(c3nc(CNC5CC5)nc5c3CC(C)(C)CC5)CCO4)cc2[nH]1 [Example 588, N-({6,6-dimethyl-4-[7-(2-methyl-1H-benzimidazol-6-yl)-2,3-dihydro-1,4-benzoxazepin-4(5H)-yl]-5,6,7,8-tetrahydroquinazolin-2-yl}methyl)cyclopropanamine]
- IC50: 10 to 50 nM

SMILES: Cc1nc2ccc(-c3ccc4c(c3)CN(c3ncnc5c3CCCC5)CCO4)cc2[nH]1 [Example 46, 7-(2-methyl-1H-benzimidazol-6-yl)-4-(5,6,7,8-tetrahydroquinazolin-4-yl)-2,3,4,5-tetrahydro-1,4-benzoxazepine]
- IC50: 250 to 1000 nM

SMILES: Cc1nc2cc(-c3ccc4c(c3)CN(c3nc(CN(C)C)nc(C)c3CC(C)C)CCO4)ccc2[nH]1 [Example 655, N,N-dimethyl-1-{4-methyl-6-[7-(2-methyl-1H-benzimidazol-5-yl)-2,3-dihydro-1,4-benzoxazepin-4(5H)-yl]-5-(2-methylpropyl)pyrimidin-2-yl}methanamine]
- IC50: 250 to 1000 nM

SMILES: CSc1nc2c(c(N3CCOc4ccc(-c5ccc6nc(C)[nH]c6c5)cc4C3)n1)CCC2 [Example 49, 7-(2-methyl-1H-benzimidazol-6-yl)-4-[2-(methylthio)-6,7-dihydro-5H-cyclopenta[d]pyrimidin-4-yl]-2,3,4,5-tetrahydro-1,4-benzoxazepine]
- IC50: 50 to 250 nM

SMILES: Cc1c(NCC2CCN(C)CC2)ncnc1N1CCOc2ccc(-c3cnc4nc(C5CC5)[nH]c4c3)cc2C1 [Example 533, 6-[7-(2-cyclopropyl-1H-imidazo[4,5-b]pyridin-6-yl)-2,3-dihydro-1,4-benzoxazepin-4(5H)-yl]-5-methyl-N-[(1-methylpiperidin-4-yl)methyl]pyrimidin-4-amine]
- IC50: ≥ 2000 nM

SMILES: Cc1nc2ccc(-c3ccc4c(c3)CN(c3ncnc5ccc(S(C)(=O)=O)cc35)CCO4)cc2[nH]1 [Example 50, 7-(2-methyl-1H-benzimidazol-6-yl)-4-[6-(methylsulfonyl)quinazolin-4-yl]-2,3,4,5-tetrahydro-1,4-benzoxazepine]
- IC50: 250 to 1000 nM

SMILES: COc1c(OCc2ccc3ccccc3n2)ccc2c(N3CCOc4ccc(-c5ccc6nc(C)[nH]c6c5)cc4C3)ncnc12 [Example 167, 7-(2-methyl-1H-benzimidazol-6-yl)-4-{8-(methyloxy)-7-[(quinolin-2-ylmethyl)oxy]quinazolin-4-yl}-2,3,4,5-tetrahydro-1,4-benzoxazepine]
- IC50: ≥ 2000 nM

SMILES: Cc1nc(CNCCF)nc(N2CCOc3ccc(-c4cnc5sc(N)nc5c4)cc3C2)c1C(C)C [Example 680, 6-{4-[2-{[(2-fluoroethyl)amino]methyl}-6-methyl-5-(1-methylethyl)pyrimidin-4-yl]-2,3,4,5-tetrahydro-1,4-benzoxazepin-7-yl}[1,3]thiazolo[5,4-b]pyridin-2-amine]
- IC50: ≤ 10 nM

SMILES: Cc1ncnc(N2CCOc3ccc(-c4cnc5nc[nH]c5c4)cc3C2)c1Cc1ccc(F)cc1 [Example 142, 4-{5-[(4-fluorophenyl)methyl]-6-methylpyrimidin-4-yl}-7-(1H-imidazo[4,5-b]pyridin-6-yl)-2,3,4,5-tetrahydro-1,4-benzoxazepine]
- IC50: ≤ 10 nM

SMILES: CCNc1nc(C)nc(N2CCOc3ccc(-c4cnc5nc(C)[nH]c5c4)cc3C2)c1C [Example 637, N-ethyl-2,5-dimethyl-6-[7-(2-methyl-1H-imidazo[4,5-b]pyridin-6-yl)-2,3-dihydro-1,4-benzoxazepin-4(5H)-yl]pyrimidin-4-amine]
- IC50: 250 to 1000 nM

— patent US8648066B2 (Exelixis, Inc., priority 2009, dated 2014)
